# Reference: publication PMC12400448 (Chemical Science, 2025)
# Target: alkaline phosphatase (ALP)
# Experiment: fluorescence enzyme inhibition assay with compd. […] as substrate
# Type: biochemical
structure (smiles),measurement,value
[O]=[V]([OH])([OH])[OH] [sodium orthovanadate],IC50,10.2 µM
